These results are taken from US9445596B2, “Small molecule compounds for the control of nematodes” (California Institute of Technology, priority 2011, dated 2016).

“Also recorded” adds a separate entry of the source.

The subject of test [1] is ASI sensory neurons. To be noted: McGrath et al., Nature 2011; cited from earlier work.
Test [2] has as its system C. elegans hermaphrodites. The test is described as follows: Quadrant chemotaxis assay. Type of test: in vivo. To be noted: for chemotaxis of hermaphrodites: 1 pM, all tested strains. The procedure: Chemotaxis to both non-indole and indole ascarosides was assessed on 10 cm four-quadrant petri plates (Wicks et al., Dev. Biol. 221:295-307 (2000), which is hereby incorporated by reference in its entirety). Each quadrant was separated from adjacent ones by plastic spacers (FIG. 1B). Pairs of opposite quadrants were filled with nematode growth medium (NGM) agar containing either indole ascarosides or non-indole ascarosides at different concentrations. Animals were washed gently in a S-basal buffer, placed in the center of a four-quadrant plate with ascarosides in alternating quadrants, and scored after 15 minutes and 30 minutes. A chemotaxis index was calculated as: (the number of animals on ascaroside quadrants minus the number of animals on buffer quadrants)/(total number of animals).
Chemotaxis to hbas#3 was assessed on 10 cm four-quadrant petri plates (Wicks et al., Dev. Biol. 221:295-307 (2000), which is hereby incorporated by reference in its entirety). Each quadrant was separated from adjacent ones by plastic spacers. Pairs of opposite quadrants were filled with nematode growth medium (NGM) agar containing different concentrations of hbas#3. Animals were washed gently in an S-basal buffer and placed in the center of a four-quadrant plate with ascarosides in alternating quadrants, and scored after 15 minutes and 30 minutes. A chemotaxis index was calculated as: (the number of animals on ascaroside quadrants minus the number of animals on buffer quadrants)/(total number of animals).

Test [3] has as its system C. elegans hermaphrodites and males. Put plainly: Spot attraction assay. Type of test: in vivo. The procedure:
The spot attraction assays were conducted according to a previously reported method (Pungaliya et al., PNAS 106:7708-13 (2009); Srinivasan et al., Nature 454:1115-18 (2008), which are hereby incorporated by reference in their entirety). For both C. elegans hermaphrodites and males, 50-60 worms were harvested daily at the fourth larval stage (L4) and stored segregatedly by sex at 20° C. overnight, to be used as young adults the following day. For the competition experiments, two conditions were used: 120 nM ascr#3 and 10 nM icas#3 (Condition 1), or 12 μM ascr#3 and 1 μM icas#3 (Condition 2) in water containing 10% ethanol. Aliquots were stored at −20° C. in 20 μL tubes. 10% ethanol in water was used as control.
Attraction assays with hbas#3 were conducted as previously reported (Srinivasan et al., Nature 454:1115-18 (2008); Pungaliya et al., Proc. Natl. Acad. Sci. U.S.A. 106:7708-13 (2009), which are hereby incorporated by reference in their entirety). For the attraction assays, 50-60 hermaphrodite worms were harvested daily at the early fourth larval stage (L4) and stored at 20° C. overnight to be used as young adults the following day. Hbas#3 was dissolved in water containing 10% ethanol. Aliquots were stored at −20° C. in 20 μL tubes. 10% ethanol in water was used as control.

The subject of test [4] is ASK neurons. Put plainly: Calcium imaging (G-CaMP), ASK neurons. Type of test: in vivo, C. elegans. To be noted: 1 pM to 1 μM. An excerpt:
(§1) Transgenic lines that express the genetically encoded Ca^2+ sensor in ASK (kyEx2866) and AIA (kyEx2916) (Macosko et al., Nature 458:1171-75 (2009), which is hereby incorporated by reference in its entirety) were used for calcium imaging. Young adults or adult worms were inserted into an “Olfactory chip” microfluidic device (Chronis et al., Nat. Methods 4:727-31 (2007), which is hereby incorporated by reference in its entirety). Dilutions of icas#3 were done with S-basal buffer (with no cholesterol). As stock solutions of icas#3 contained small amounts of ethanol, equivalent amounts of ethanol were added to the S-basal control flow.
(§2) Imaging was conducted using an inverted Zeiss microscope equipped with an Andor camera. Exposure time for image acquisition was 300 milliseconds. Before imaging the ASK neuron, the worm was exposed to blue light for 3 minutes as ASK responds to the blue light itself. […] Movies were analyzed using custom-made Matlab scripts. The first peak of fluorescence immediately after exposure to buffer or icas#3 was chosen for calculating the average change in fluorescence upon exposure to either buffer or icas#3. The value for this maximum was then subtracted from the mean fluorescence during the 5 seconds before the delivery of icas#3/buffer (corresponding to the region between 5 to 10 seconds in FIG. 2D).

Test [5] has as its system C. elegans. Put plainly: Aggregation assay. Type of test: in vivo. As for the experimental part:
Aggregation behavior of worms was measured using assays reported in de Bono & Bargmann, Cell 94:679-89 (1998), which is hereby incorporated by reference in its entirety. Aggregation assays were conducted on standard NGM plates. Plates containing indole ascarosides were made by adding the indole ascaroside stock solution to the NGM media before they were poured onto the plates. These plates were dried at room temperature for 2 to 3 days. Control plates were treated similarly, except that ethanol solutions instead of icas solutions were added to the plates, corresponding to the amount of ethanol introduced via the icas solutions. Final ethanol concentrations of the plates were below 0.1% for all conditions. After drying, both control plates and plates containing indole ascarosides were seeded with 150 μl of an overnight culture of E. coli OP50 using a micropipette, and were allowed to dry for 2 days at room temperature. For “low worm density” experiments, 20 worms were placed onto the lawn and left at 20° C. for 3 hours. For “high worm density” experiments, approximately 120 worms were placed onto the bacterial lawn and left at 20° C. for 3 hours. Aggregation behavior was quantified as the number of animals that were in touch with two or more animals at greater than 50% of their body length.

Test [6] deals with C. elegans hermaphrodites. The test is described as follows: Measurement of locomotory parameters (automated worm tracking). Type of test: in vivo. The procedure:
Reversal frequency and velocity were measured using an automated worm-tracking system (Pungaliya et al., PNAS 106:7708-13 (2009); Srinivasan et al., Nature 454:1115-18 (2008), which are hereby incorporated by reference in their entirety).

The subject of test [7] is AIA interneurons. Put plainly: Calcium imaging (G-CaMP), AIA interneurons. Type of test: in vivo, C. elegans.
From the text: as §1, §2

The mark [8] stands for this setting: social wild-type strains (RC301 and CB4856) and npr-1(ad609) hermaphrodites.
The mark [9] stands for this setting: ASK-ablated hermaphrodites on icas#3 plates.

For the molecule `C[C@@H]1O[C@@H](OCCC(=O)O)[C@H](O)C[C@H]1O` [ascr#5], in test [1], the “calcium transients in the ASI sensory neurons” value is recorded as “does not elicit calcium transients”.

Turning to `C[C@H](CCCC/C=C/C(=O)O)O[C@@H]1O[C@@H](C)[C@H](OC(=O)c2c[nH]c3ccccc23)C[C@H]1O` [icas#3], the chemotaxis of hermaphrodites result in test [2] (after 15 minutes) and in test [2] (after 30 minutes) was “attracted” each time. Moreover, in test [2] (both in the presence and absence of food), the “lowest concentration resulting in strong attraction of hermaphrodites (as low as)” value is on record as 1 pM. Also, the “response of daf-22 hermaphrodites” value in test [2] (daf-22 hermaphrodites) is “as strongly as N2 worms”. Also, the “attraction of social hermaphrodites” value is on record as “strongly attracted” in test [2] (setting [8]) and “attracted; also recorded: strongly attracted” in test [3] (setting [8]). The “attraction in the spot attraction assay” value is “attractive to both C. elegans sexes” in test [3] (1 pmol, N2 hermaphrodites and him-5 males); “attracted both males and hermaphrodites” in test [3] (high concentrations, males and hermaphrodites). In addition, in test [3] (ASI- and ASK-ablated hermaphrodites), the “attraction after ablation of both ASI and ASK neurons” value is “did not result in a more significant loss of attraction compared to ASK ablation alone”. The “attraction after ablation of the ASI neurons” value in test [3] (ASI-ablated hermaphrodites) was “no significant effect”. Further, the “attraction of AIA-deficient worms” value in test [3] (MEC-4 expressed in AIA interneuron) is on record as “did not show any attraction”. Moreover, in test [3] (daf-22 hermaphrodites), the “attraction of daf-22 hermaphrodites” value is “attracted; also recorded: as strongly as N2 worms”. In addition, the “attraction after ablation of ASK sensory neurons” value in test [3] (hermaphrodites lacking ASK neurons) is reported as “near complete loss of attraction”. Moreover, the attraction of hermaphrodites entry in test [3] (low concentrations, N2 hermaphrodites) is recorded as “strongly attractive to hermaphrodites”. For the same molecule, the attraction of males entry in test [3] (low concentrations, males) is “no longer attracted”. In addition, the “attraction after ablation of the RMG interneuron” value in test [3] (wild-type (N2) and ncs-1::gfp hermaphrodites, RMG ablated) is on record as “does not affect attraction; also recorded: did not affect icas#3 response”. Also, the “Ca^2+ transients in ASK neurons” value in test [4] is recorded as “no detection of Ca^2+ transients”. In addition, the “increase in aggregation of N2 hermaphrodites” value in test [5] (high worm density (120 worms per 5 cm plate)) is not above 3 fold; in test [5] (low worm density, 1 pM) it was not above 4 fold. Further, in test [5] (icas#3-mediated aggregation), the average clump size is reported as 3-5 worms. For the same molecule, the “concentrations at which active as hermaphrodite attractants and aggregation signals” value in test [5] (in vivo) is given as “femtomolar to picomolar”. Also, the “concentrations that induce maximal aggregation” value in test [5] (in vivo) was in the range of 1 to 10 pM. Further, the “lowest concentration with very strong increase in aggregation (as low as)” value in test [5] (low worm density (20 worms per 5 cm plate), solitary and social hermaphrodites) is 10 fM. In addition, in test [5] (low worm density, 1 pM and 10 pM), the “aggregation of daf-22 hermaphrodites compared with N2” value was “less aggregation than N2 worms at 1 pM icas#3 but not at 10 pM icas#3”. Further, the “aggregation of hermaphrodites lacking the ASK neurons” value in test [5] (low worm density, any of the tested concentrations) is “do not aggregate; also recorded: did not aggregate”. In test [5] (low worm density, over the entire tested concentration range, without a drop off at higher concentrations), the “aggregation of npr-1(ad609) hermaphrodites” value was “increased aggregation”. In addition, the “aggregation at 1 nM” value in test [5] (low worm density, social strain CB4856, 1 nM) is “not significantly different from the control”. The “concentration of maximal aggregation” value in test [5] (low worm density, social strain CB4856, bell-shaped response curve) is on record as 1 pM. In test [5] (plates containing 100 fM or 100 pM), the “aggregation of him-5 males” value is listed as “significantly increased”. The worm velocity result in test [6] (1-10 pM) is “not significantly reduced”. Moreover, in test [6] (setting [9]), the “forward velocity of ASK-ablated hermaphrodites” value was “do not display reduced forward velocity”. For the same molecule, the “reversal frequency of ASK-ablated hermaphrodites” value in test [6] (setting [9]) is recorded as “does not increase; also recorded: neither increased reversal frequency”. The mean stopped duration result in test [6] (aggregation-inducing concentrations, N2 hermaphrodites) is listed as “strongly increase mean stopped duration”. Besides, in test [7] (1 μM), the “G-CaMP fluorescence signals in AIA interneurons” value is “induces G-CaMP fluorescence signals”. The “G-CaMP fluorescence in the AIA neurons” value in test [7] (in vivo) was “significantly increased G-CaMP fluorescence”.
